{"source": "ChEMBL document CHEMBL5579824", "about": "“Novel Hsp90-Targeting PROTACs: Enhanced synergy with cisplatin in combination therapy of cervical cancer” (Eur J Med Chem, 2024)", "key": {"[1]": {"molecular_target": "Serine/threonine-protein kinase AKT (Homo sapiens) (UniProt P31751+Q9Y243+P31749)", "sequence (P31749 whole entry, looked up)": "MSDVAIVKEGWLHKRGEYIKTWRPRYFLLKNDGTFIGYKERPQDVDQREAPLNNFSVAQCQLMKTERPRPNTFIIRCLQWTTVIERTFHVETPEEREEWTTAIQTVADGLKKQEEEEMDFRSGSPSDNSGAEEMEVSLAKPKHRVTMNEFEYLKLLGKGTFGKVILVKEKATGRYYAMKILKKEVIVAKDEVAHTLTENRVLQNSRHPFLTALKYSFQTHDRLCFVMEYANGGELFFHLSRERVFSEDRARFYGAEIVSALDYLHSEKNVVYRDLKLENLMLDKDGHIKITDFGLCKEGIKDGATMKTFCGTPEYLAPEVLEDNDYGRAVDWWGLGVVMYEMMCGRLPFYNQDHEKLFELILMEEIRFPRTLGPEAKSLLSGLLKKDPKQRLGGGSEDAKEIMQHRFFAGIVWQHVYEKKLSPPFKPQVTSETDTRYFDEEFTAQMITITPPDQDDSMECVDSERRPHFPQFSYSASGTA", "sequence (P31751 whole entry, looked up)": "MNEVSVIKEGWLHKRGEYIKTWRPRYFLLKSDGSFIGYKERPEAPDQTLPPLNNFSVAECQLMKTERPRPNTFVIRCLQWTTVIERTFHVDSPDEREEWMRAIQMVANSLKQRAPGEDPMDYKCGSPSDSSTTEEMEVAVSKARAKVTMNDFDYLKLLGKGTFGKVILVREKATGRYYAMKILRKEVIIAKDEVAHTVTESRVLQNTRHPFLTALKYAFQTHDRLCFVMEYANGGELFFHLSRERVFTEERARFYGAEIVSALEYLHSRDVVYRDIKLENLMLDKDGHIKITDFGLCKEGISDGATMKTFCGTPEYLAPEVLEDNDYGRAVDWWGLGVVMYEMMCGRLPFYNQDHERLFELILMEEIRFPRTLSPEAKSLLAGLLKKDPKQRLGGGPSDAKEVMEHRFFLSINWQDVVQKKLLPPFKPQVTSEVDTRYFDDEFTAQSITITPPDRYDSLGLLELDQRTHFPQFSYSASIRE", "sequence (Q9Y243 whole entry, looked up)": "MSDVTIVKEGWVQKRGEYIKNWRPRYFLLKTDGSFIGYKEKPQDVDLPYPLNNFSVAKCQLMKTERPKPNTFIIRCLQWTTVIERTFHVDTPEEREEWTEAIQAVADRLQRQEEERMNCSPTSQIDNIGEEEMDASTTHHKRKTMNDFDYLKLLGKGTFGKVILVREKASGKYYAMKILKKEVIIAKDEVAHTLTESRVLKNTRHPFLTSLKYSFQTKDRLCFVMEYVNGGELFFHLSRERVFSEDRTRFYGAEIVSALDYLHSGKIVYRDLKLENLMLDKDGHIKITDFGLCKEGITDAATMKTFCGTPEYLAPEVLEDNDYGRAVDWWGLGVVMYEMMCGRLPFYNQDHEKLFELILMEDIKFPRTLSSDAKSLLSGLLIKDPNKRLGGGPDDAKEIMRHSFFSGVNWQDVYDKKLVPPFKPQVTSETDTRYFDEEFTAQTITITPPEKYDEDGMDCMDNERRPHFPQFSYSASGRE", "experiment": "Inhibition of AKT phosphorylation in human SiHa cells incubated for 10 hrs by Western blot analysis", "assay_type": "cell-based", "conditions": "dose 0.01-1 µM"}, "[2]": {"molecular_target": "T1, Protein cereblon/Heat shock protein HSP 90-alpha/Heat shock protein HSP 90-beta (Homo sapiens) (UniProt P07900+P08238+Q96SW2)", "experiment": "Protac activity at CRBN/Hsp90 in human SiHa cells assessed as induction of Hsp90 degradation at 1 uM incubated for 10 hrs by Western blot analysis", "assay_type": "cell-based"}, "[3]": {"molecular_target": "T1, Protein cereblon/Heat shock protein HSP 90-alpha/Heat shock protein HSP 90-beta (Homo sapiens)", "experiment": "Protac activity at CRBN/Hsp90 in human SiHa cells assessed as induction of Hsp90 degradation at 1 uM incubated for 36 hrs by Western blot analysis", "assay_type": "cell-based"}, "[4]": {"molecular_target": "T1, Protein cereblon/Heat shock protein HSP 90-alpha/Heat shock protein HSP 90-beta (Homo sapiens)", "experiment": "Protac activity at CRBN/Hsp90 in human SiHa cells assessed as induction of Hsp90 degradation at 0.05 uM incubated for 10 hrs by Western blot analysis", "assay_type": "cell-based"}, "[5]": {"molecular_target": "T1, Protein cereblon/Heat shock protein HSP 90-alpha/Heat shock protein HSP 90-beta (Homo sapiens)", "experiment": "Protac activity at CRBN/Hsp90 in human SiHa cells assessed as induction of Hsp90 degradation (causing hook effect) at > 0.075 uM incubated for 10 hrs by Western blot analysis", "assay_type": "cell-based"}, "[6]": {"molecular_target": "T1, Protein cereblon/Heat shock protein HSP 90-alpha/Heat shock protein HSP 90-beta (Homo sapiens)", "experiment": "Protac activity at CRBN/Hsp90 in human Ca-Ski cells assessed as induction of Hsp90 degradation (causing hook effect) at > 0.075 uM incubated for 10 hrs by Western blot analysis", "assay_type": "cell-based"}, "[7]": {"tested_on": "SiHa", "experiment": "Inhibition of cell migration in human SiHa cells at 0.5 uM measured after 48 hrs by microscope based wound healing assay relative to control", "assay_type": "functional"}, "[8]": {"tested_on": "SiHa", "experiment": "Induction of apoptosis in human SiHa cells assessed as increase in apoptotic cells incubated after 48 hrs by annexin V-FITC/PI staining based flow cytometry", "assay_type": "functional, cell-based", "conditions": "dose 0.05-10 µM"}, "[9]": {"tested_on": "SiHa", "experiment": "Induction of apoptosis in human SiHa cells assessed as early apoptotic cells at 10 uM incubated after 48 hrs by annexin V-FITC/PI staining based flow cytometry (reference value: 2.05 %)", "assay_type": "functional"}, "[10]": {"tested_on": "SiHa", "experiment": "Induction of apoptosis in human SiHa cells assessed as viable cells at 1 uM incubated after 48 hrs by annexin V-FITC/PI staining based flow cytometry (reference value: 90.4 %)", "assay_type": "functional", "conditions": "read-out: Activity"}, "[11]": {"tested_on": "SiHa", "experiment": "Induction of cell cycle arrest in human SiHa cells assessed as accumulation of cells at G1 pahse at 10 uM incubated after 48 hrs by PI staining based flow cytometry (reference value: 83.90 %)", "assay_type": "functional"}, "[12]": {"tested_on": "SiHa", "experiment": "Induction of cell cycle arrest in human SiHa cells assessed as accumulation of cells at G2/M pahse at 10 uM incubated after 48 hrs by PI staining based flow cytometry (reference value: 7.37 %)", "assay_type": "functional"}, "[13]": {"tested_on": "SiHa", "experiment": "Induction of cell cycle arrest in human SiHa cells assessed as accumulation of cells at S pahse at 2.5 uM incubated after 48 hrs by PI staining based flow cytometry (reference value: 8.51 %)", "assay_type": "functional"}, "[14]": {"tested_on": "SiHa", "experiment": "Induction of cell cycle arrest in human SiHa cells assessed as accumulation of cells at G2/M pahse at 2.5 uM incubated after 48 hrs by PI staining based flow cytometry (reference value: 7.37 %)", "assay_type": "functional"}, "[15]": {"tested_on": "SiHa", "experiment": "Induction of cell cycle arrest in human SiHa cells assessed as accumulation of cells at G1 pahse at 1 uM incubated after 48 hrs by PI staining based flow cytometry (reference value: 83.90 %)", "assay_type": "functional"}, "[16]": {"tested_on": "SiHa", "experiment": "Induction of cell cycle arrest in human SiHa cells assessed as accumulation of cells at G1 pahse at 0.05 uM incubated after 48 hrs by PI staining based flow cytometry (reference value: 83.90 %)", "assay_type": "functional"}, "[17]": {"tested_on": "SiHa", "experiment": "Synergistic antiproliferative activity against human SiHa cells assessed as combination index at 0.05 uM incubated for 72 hrs in presence of 0.1 uM cisplatin by CCK-8 assay", "assay_type": "functional"}, "[18]": {"tested_on": "SiHa", "experiment": "Synergistic antiproliferative activity against human SiHa cells assessed as combination index at 0.1 uM incubated for 72 hrs in presence of 10 uM cisplatin by CCK-8 assay", "assay_type": "functional"}, "[19]": {"tested_on": "SiHa", "experiment": "Synergistic antiproliferative activity against human SiHa cells assessed as combination index at 0.5 uM incubated for 72 hrs in presence of 3.16 uM cisplatin by CCK-8 assay", "assay_type": "functional"}, "[20]": {"tested_on": "SiHa", "experiment": "Synergistic antiproliferative activity against human SiHa cells assessed as combination index at 0.5 uM incubated for 72 hrs in presence of 0.32 uM cisplatin by CCK-8 assay", "assay_type": "functional"}, "[21]": {"tested_on": "SiHa", "experiment": "Synergistic antiproliferative activity against human SiHa cells assessed as combination index at 0.5 uM incubated for 72 hrs in presence of 0.1 uM cisplatin by CCK-8 assay", "assay_type": "functional"}, "[22]": {"tested_on": "SiHa", "experiment": "Synergistic antiproliferative activity against human SiHa cells assessed as combination index at 0.5 uM incubated for 72 hrs in presence of 0.01 uM cisplatin by CCK-8 assay", "assay_type": "functional"}, "[23]": {"tested_on": "SiHa", "experiment": "Synergistic antiproliferative activity against human SiHa cells assessed as combination index at 0.75 uM incubated for 72 hrs in presence of 0.32 uM cisplatin by CCK-8 assay", "assay_type": "functional"}, "[24]": {"tested_on": "SiHa", "experiment": "Synergistic antiproliferative activity against human SiHa cells assessed as combination index at 0.75 uM incubated for 72 hrs in presence of 0.1 uM cisplatin by CCK-8 assay", "assay_type": "functional"}, "[25]": {"tested_on": "SiHa", "experiment": "Synergistic antiproliferative activity against human SiHa cells assessed as combination index at 0.75 uM incubated for 72 hrs in presence of 0.03 uM cisplatin by CCK-8 assay", "assay_type": "functional"}, "[26]": {"tested_on": "SiHa", "experiment": "Synergistic antiproliferative activity against human SiHa cells assessed as combination index at 1 uM incubated for 72 hrs in presence of 31.62 uM cisplatin by CCK-8 assay", "assay_type": "functional"}, "[27]": {"tested_on": "SiHa", "experiment": "Synergistic antiproliferative activity against human SiHa cells assessed as combination index at 1 uM incubated for 72 hrs in presence of 1 uM cisplatin by CCK-8 assay", "assay_type": "functional"}, "[28]": {"tested_on": "SiHa", "experiment": "Synergistic antiproliferative activity against human SiHa cells assessed as combination index at 1 uM incubated for 72 hrs in presence of 0.32 uM cisplatin by CCK-8 assay", "assay_type": "functional"}, "[29]": {"tested_on": "SiHa", "experiment": "Synergistic antiproliferative activity against human SiHa cells assessed as combination index at 1 uM incubated for 72 hrs in presence of 0.03 uM cisplatin by CCK-8 assay", "assay_type": "functional"}, "[30]": {"tested_on": "SiHa", "experiment": "Synergistic antiproliferative activity against human SiHa cells assessed as combination index at 5 uM incubated for 72 hrs in presence of 31.62 uM cisplatin by CCK-8 assay", "assay_type": "functional"}, "[31]": {"tested_on": "SiHa", "experiment": "Synergistic antiproliferative activity against human SiHa cells assessed as combination index at 10 uM incubated for 72 hrs in presence of 31.62 uM cisplatin by CCK-8 assay", "assay_type": "functional"}, "[32]": {"tested_on": "SiHa", "experiment": "Synergistic antiproliferative activity against human SiHa cells assessed as combination index at 10 uM incubated for 72 hrs in presence of 0.32 uM cisplatin by CCK-8 assay", "assay_type": "functional"}, "[33]": {"tested_on": "SiHa", "experiment": "Synergistic antiproliferative activity against human SiHa cells assessed as combination index at 10 uM incubated for 72 hrs in presence of 0.1 uM cisplatin by CCK-8 assay", "assay_type": "functional"}, "[34]": {"tested_on": "SiHa", "experiment": "Synergistic antiproliferative activity against human SiHa cells assessed as combination index at 10 uM incubated for 72 hrs in presence of 0.01 uM cisplatin by CCK-8 assay", "assay_type": "functional"}}, "note": "Active and inactive are the calls of the source. No cut-off for these calls is given here."}
{"smiles": "CC1(C)CC(=O)c2c(C(F)(F)F)nn(-c3ccc(C(N)=O)c(N[C@H]4CC[C@H](OC(=O)CNC(=O)CCCCCCCNc5cccc6c5CN(C5CCC(=O)NC5=O)C6=O)CC4)c3)c2C1", "note": "(some centres undefined)", "values": [{"measurement": "inhibition", "setting": "[1]", "value": "Active"}, {"measurement": "Activity", "setting": "[2]", "value": "Active"}, {"measurement": "Activity", "setting": "[3]", "value": "inactive"}, {"measurement": "Activity", "setting": "[4]", "value": "Active"}, {"measurement": "Activity", "setting": "[5]", "value": "inactive"}, {"measurement": "Activity", "setting": "[6]", "value": "inactive"}, {"measurement": "inhibition at 0.5 µM", "setting": "[7]", "value": "~100", "unit": "%"}, {"measurement": "Activity", "setting": "[8]", "value": "Dose-Dependent Effect"}, {"measurement": "Activity", "setting": "[9]", "value": 20.83, "unit": "%"}, {"measurement": "viability at 1 µM", "setting": "[10]", "value": 59, "unit": "%"}, {"measurement": "Activity", "setting": "[11]", "value": 62.26, "unit": "%"}, {"measurement": "Activity", "setting": "[12]", "value": 24.06, "unit": "%"}, {"measurement": "Activity", "setting": "[13]", "value": 21.18, "unit": "%"}, {"measurement": "Activity", "setting": "[14]", "value": 25.47, "unit": "%"}, {"measurement": "Activity", "setting": "[15]", "value": 59.32, "unit": "%"}, {"measurement": "Activity", "setting": "[16]", "value": 78.92, "unit": "%"}, {"measurement": "CI", "setting": "[17]", "value": 0.36}, {"measurement": "CI", "setting": "[18]", "value": 0.43}, {"measurement": "CI", "setting": "[19]", "value": 0.14}, {"measurement": "CI", "setting": "[20]", "value": 0.12}, {"measurement": "CI", "setting": "[21]", "value": 0.13}, {"measurement": "CI", "setting": "[22]", "value": 0.18}, {"measurement": "CI", "setting": "[23]", "value": 0.17}, {"measurement": "CI", "setting": "[24]", "value": 0.18}, {"measurement": "CI", "setting": "[25]", "value": 0.19}, {"measurement": "CI", "setting": "[26]", "value": 0.27}, {"measurement": "CI", "setting": "[27]", "value": 0.18}, {"measurement": "CI", "setting": "[28]", "value": 0.2}, {"measurement": "CI", "setting": "[29]", "value": 0.22}, {"measurement": "CI", "setting": "[30]", "value": 0.53}, {"measurement": "CI", "setting": "[31]", "value": 0.97}, {"measurement": "CI", "setting": "[32]", "value": 1.89}, {"measurement": "CI", "setting": "[33]", "value": 2.06}, {"measurement": "CI", "setting": "[34]", "value": 2.19}]}
